# ChEMBL document CHEMBL1201862, “PubChem BioAssay data set” (2004)
#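 Grown in 96-well plates, cells were treated for 48 hours with each compound at five concentrations. Insufficient inhibition: endpoint recorded as highest concentration tested. GI50 = concentration required for 50% inhibition of growth.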 The source made the active and inactive calls. No stated cut-off is given here; in the data, active = GI50 up to about 1.1 µM and inactive = higher.
# Legend:
# Assay in all cases: DTP human tumour cell line panel, 48 h
# [1] = system: CAKI-1
# [2] = system: CCRF-CEM
# [3] = system: COLO 205
# [4] = system: HCC 2998
# [5] = system: HCT-116
# [6] = system: HL-60
# [7] = system: HT-29
# [8] = system: MDA-MB-231
# [9] = system: MOLT-4
# [10] = system: NCI/ADR-RES
# [11] = system: OVCAR-3
# [12] = system: OVCAR-4
# [13] = system: OVCAR-5
# [14] = system: OVCAR-8
# [15] = system: PC-3
# [16] = system: SF-295
# [17] = system: SF-539
# [18] = system: SNB-75
# [19] = system: RXF 393
# [20] = system: SNB-19
SMILES,GI50 [1],GI50 [2],GI50 [3],GI50 [4],GI50 [5],GI50 [6],GI50 [7],GI50 [8],GI50 [9],GI50 [10],GI50 [11],GI50 [12],GI50 [13],GI50 [14],GI50 [15],GI50 [16],GI50 [17],GI50 [18],GI50 [19],GI50 [20]
CN(C)CCCOCCn1c2c(c3ccccc31)CCCC2,15.2 µM (inactive),12.9 µM (inactive),16.6 µM (inactive),14.4 µM (inactive),15.3 µM (inactive),5.19 µM (inactive),15 µM (inactive),13 µM (inactive),13.7 µM (inactive),16.3 µM (inactive),18.2 µM (inactive),15.2 µM (inactive),16.9 µM (inactive),17.5 µM (inactive),12.9 µM (inactive),20 µM (inactive),18.7 µM (inactive),13.1 µM (inactive),–,–
Cc1cccc(-n2c(C)nc3ccc(NC(=S)Nc4ccccc4)cc3c2=O)c1,> 100 µM (inactive),–,30.6 µM (inactive),25 µM (inactive),46.5 µM (inactive),37.4 µM (inactive),51.9 µM (inactive),70.1 µM (inactive),28.4 µM (inactive),84.1 µM (inactive),32.4 µM (inactive),60.8 µM (inactive),> 100 µM (inactive),74.3 µM (inactive),41.6 µM (inactive),> 100 µM (inactive),–,> 100 µM (inactive),62.4 µM (inactive),> 100 µM (inactive)
Cc1cc2c(cc1C(=O)c1ccc(N)cc1)OCO2,24.5 µM (inactive),39.1 µM (inactive),16 µM (inactive),–,52 µM (inactive),49.9 µM (inactive),22.9 µM (inactive),34.1 µM (inactive),40.1 µM (inactive),25.1 µM (inactive),0.347 µM (active),–,27 µM (inactive),> 100 µM (inactive),43.6 µM (inactive),21.9 µM (inactive),27.2 µM (inactive),–,–,57.7 µM (inactive)
COc1cc2c(cc1O)CC[n+]1cc3c(OC)c(OC)ccc3cc1-2,> 100 µM (inactive),> 100 µM (inactive),72.4 µM (inactive),> 100 µM (inactive),> 100 µM (inactive),> 100 µM (inactive),> 100 µM (inactive),> 100 µM (inactive),> 100 µM (inactive),> 100 µM (inactive),59.4 µM (inactive),> 100 µM (inactive),> 100 µM (inactive),> 100 µM (inactive),> 100 µM (inactive),> 100 µM (inactive),> 100 µM (inactive),> 100 µM (inactive),–,60.1 µM (inactive)
N#Cc1c(Cl)c(C=O)c(=O)n2c1[nH]c1ccccc12,40.3 µM (inactive),40.4 µM (inactive),59.7 µM (inactive),> 100 µM (inactive),29.8 µM (inactive),42.6 µM (inactive),36 µM (inactive),31.8 µM (inactive),29 µM (inactive),28.3 µM (inactive),20.1 µM (inactive),84.5 µM (inactive),28.4 µM (inactive),42.1 µM (inactive),55.1 µM (inactive),35.9 µM (inactive),35.9 µM (inactive),42.1 µM (inactive),–,63.8 µM (inactive)
Cc1ccc([S+]([O-])CC(CF)OCn2cc(C)c(=O)[nH]c2=O)cc1 (stereo unspecified),> 100 µM (inactive),–,> 100 µM (inactive),> 100 µM (inactive),> 100 µM (inactive),> 100 µM (inactive),–,> 100 µM (inactive),> 100 µM (inactive),> 100 µM (inactive),> 100 µM (inactive),> 100 µM (inactive),> 100 µM (inactive),> 100 µM (inactive),> 100 µM (inactive),> 100 µM (inactive),> 100 µM (inactive),> 100 µM (inactive),–,> 100 µM (inactive)
Cc1c(O)c(OC2OC(CO)C(O)C(O)C2O)cc2c1CC[C@@H]1C2(C)C(=O)C[C@]2(C)[C@@H]([C@@](C)(O)C(=O)CCC(C)(C)O)[C@H](O)C[C@@]12C (stereo partly specified),> 100 µM (inactive),> 100 µM (inactive),> 100 µM (inactive),> 100 µM (inactive),> 100 µM (inactive),–,> 100 µM (inactive),> 100 µM (inactive),> 100 µM (inactive),> 100 µM (inactive),> 100 µM (inactive),> 100 µM (inactive),> 100 µM (inactive),> 100 µM (inactive),> 100 µM (inactive),> 100 µM (inactive),> 100 µM (inactive),> 100 µM (inactive),> 100 µM (inactive),> 100 µM (inactive)
